According to patent US9713613B2, “Methods and compositions for the treatment of cancer and related hyperproliferative disorders” (priority 2007, dated 2017):
Entries after “also recorded” stand apart in the source; their conditions may differ.

How the values were obtained:
[1] = tested on: ob/ob mice; assay: ob/ob mice, four weeks daily ip treatment; format: in vivo
Method: The study employed 4-5 week old male ob/ob mice of average weight of about 23 g/mouse. Fatostatin A (30 mg/kg/day) was delivered intraperitoneally daily, and body weight and food intake were measured. […] At the end of first week of treatment ob control mice injected with DMSO gained on average of 4.82 g/mouse (from 23.58±0.62 to 28.40±1.45), whereas the fatostatin treated group gained about 3.37 g/mouse (23.08±1.53 to 26.45±1.2 g/mouse), (p=0.03). After 28 days of treatment the fatostatin A treated group weighed about 12% less than the controls weeks (32.1±1.4 compared to 36.2±2.2 g/mouse […]) (P=0.02). The accumulative food intake was similar in both groups FIG. 8C).
Four- to 5-week old homozygous male obese (ob/ob) mice (C57BL/6J, The Jackson Laboratory, Bar Harbor, Me.) were housed under controlled conditions (12-hr light/dark cycle; 25° C.). The animals were housed 5 per cage and had ad libitum access to standard laboratory chow (Purina Mills, Richmond Ind.) and water for one week after their arrival. On first day of the experiment and every day thereafter the weight of the mice and the amount of the food consumed were measured. The weight of mice and food remaining were measured daily between 3-5 p.m. before the ip injection of fatostatin A (30 mg/kg; 150 μL). The administration of Fatostatin A or 10% DMSO in PBS to control groups (n=5) continued daily for four weeks till the end of the study.
After 28 days of daily injection of fatostatin A mice were fasted overnight and blood was withdrawn and Whole blood glucose and 3-hydroxybutyrate were measured with a Glucometer Precision Xtra (Abbott). For determination of serum constituents. Glucose, triglyceride and cholesterol measurements were done by the Comparative Pathology Laboratory (Baylor College of Medicine). Serum non-esterified fatty acids (NEFA) were measured by using NEFA C kit (Wako Chemicals, Richmond, Va.).
Mice were sacrificed and weights of livers, and Epididymal fat pads were determined. Frozen sections of Liver slices from individual animals were stained with Oil Red O to visualize the fat droplets (TG) in liver slices as described earlier (Abu-Elheiga et al., 2001). The remaining liver tissues were frozen in liquid nitrogen and kept at −80° C. for further analysis.
Liver triglyceride and cholesterol contents were carried out as described in the reference (Chandler, et al., 2003) using Cholesterol E Kit (Wako) and Infinity Triglyceride Kit (Thermo Electron, Melbourne, Australia), adapted for colorimetric analysis in 96-well plate format.
A portion of the frozen liver was ground to powder in liquid nitrogen. The powdered tissues were suspended in 10 ml of PBS containing 0.1 mM PMSF, 5 mM benzamidine, and 5 mg/ml protease inhibitor cocktail (Roche), and homogenized using Polytron (3×30 Sec, at high speed) and sonicated briefly to degrade DNA. The extracts were clarified by centrifugation at 16,000×g for 20 min. Protein concentrations in the supernatant were determined, and subjected to western blot analysis using commercially available antibodies against the following enzymes: FAS (BD Biosciences), citrate lyase SCD1, FADS1, ACC and phospho-ACC antibodies. The proteins were visualized using Amersham ECL Plus™ Western Blotting Detection Reagents. The intensity of the specific bands of proteins of interest were scanned and normalized against beta-actin for quantifications. FAS and ACC activities from the liver extracts were determined as described earlier (Mao et al., 2006).
Total RNA was prepared from mouse tissues using TRIzol reagent (Invitrogen). Equal amounts of RNA from 5 mice were pooled and treated with DNase I (Turbo DNA-free, Ambion, Inc.). First stranded cDNA was synthesized from 2 μg of DNase I-treated total RNA with random hexamer primer using Superscript II RNase H-reverse transcriptase (Invitrogen). […]

[2] = tested on: PLAP-BP2; assay: PLAP-BP2 cleavage assay in CHO-K1 cells; format: cell-based, Chinese hamster; conditions: 20 μM
Excerpt: To determine if fatostatin affects the ER-Golgi translocation and proteolytic processing of SREBPs, a reporter assay developed by Sakai et al. (1998) was used. PLAP-BP2 in transfected CHO-K1 cells remains membrane-bound unless it is cleaved by S1P in the Golgi and secreted into the culture medium. In the assay, a secreted alkaline phosphatase, fused with an SREBP-2 fragment lacking the NH2-terminal DNA-binding domain (PLAP-BP2513-1141), permits monitoring of translocation and processing through changes in the fluorescence of a fluorogenic phosphatase substrate (FIG. 18C). When cells were co-transfected with plasmids encoding PLAP-BP2513-1141 and SCAP, PLAP phosphatase was secreted, generating fluorescence signals. […] The fatostatin-mediated inhibition of SREBP activation was confirmed by western blot analysis of SREBPs. […] Similar results were obtained for SREBP-1 (FIG. 22).
PLAP-BP2 Cleavage. On day 0, CHO-K1 cells were plated out onto a 96-well plate in medium A. On day 2, the cells were transiently co-transfected with pCMV-PLAP-BP2(513-1141), pCMV-SCAP and pAc-β-gal, using Lipofectamine reagent (Invitrogen). […]

[3] = western blot, normalized to actin

## CCCc1cc(-c2nc(-c3ccc(C)cc3)cs2)ccn1 [Compound 1, 2-propyl-4-(4-p-tolylthiazol-2-yl)pyridine]
[1]; 30 mg/kg ip daily, four weeks
  toxicity during the treatment: no obvious toxicity
[1]; 30 mg/kg/day ip, control 4.82
  body weight gain at the end of first week: about 3.37 g/mouse
[1]; 30 mg/kg/day ip, from 23.08±1.53
  body weight at the end of first week: 26.45±1.2 g/mouse
[1]; 28 days
  decrease in serum HDL: about 22%
  decrease in serum LDL: about 35%
  increase of VLDL: about 50%
  serum non esterified free fatty acids (NEFA) higher than controls: about 70%
  serum triglycerides (TG) increase compared to controls: about 30%
[1]; 28 days, blood, listed as fatostatin A
  ketone bodies (hydroxy butyrate) increase compared to controls: increased about seven fold; also recorded: seven fold increase
[1]; 28 days, fasted mice, control 429.4±87
  serum glucose: 153.2 ± 30.5 mg/dL
[1]; 28 days, fasted mice, listed as fatostatin
  serum glucose lower than controls: ~70%
[1]; 28 days, fasted mice, listed as fatostatin A
  serum glucose lower than controls: about 70%
[1]; 28 days, control 0.5±0.37
  ketone bodies (hydroxy butyrate): 3.62 ± 1.41 mg/dL
[1]; 28 days, control 0.7±0.2
  serum NEFA: 1.93±0.26 mEq/l
[1]; 28 days, control 48±8
  serum LDL: 31±3
[1]; 28 days, control 79±12
  serum triglycerides (TG): 115±11
[1]; 28 days, control 183±12
  serum HDL: 144±11
[1]; 28 days, control 219±18
  serum total cholesterol: 183 ± 16 mg/dL
[1]; after 28 days of treatment
  body weight less than controls: about 12%
[1]; after 28 days of treatment, control 36.2±2.2
  body weight: 32.1±1.4 g/mouse
[1]; average over 28 days, control 5.9±1.4
  food intake: 5.4±1.5 g/mouse·day
[1]; calculated based on TG levels, control 15.8±2.4
  VLDL: 23.1 ± 2.3 mg/dL
[1]; control 5.9+1.4
  average daily food intake: 5.4+1.5 g/mouse/d
[1]; four weeks
  average weight of epididymal fat pads less than controls: about 20%
  decrease of ACC activity in liver extracts: about 40%
  reduction of FAS activity in liver extracts: more than 70%
  reduction of TG levels in livers: about 65%
  reduction of cholesterol levels in liver: more than 20%
[1]; four weeks, control 2.34±0.15
  average weight of livers: 1.59±0.2
[1]; four weeks, control 3.6±0.1
  cholesterol levels in liver: 2.8±0.5
[1]; four weeks, control 3.6±0.2
  average weight of epididymal fat pads: 2.7±0.1
[1]; four weeks, control 5.55±0.57
  ACC activity in liver extracts: 3.44±0.44 n mol/min·mg
[1]; four weeks, control 22.6±1.37
  FAS activity in liver extracts: 8.64±1.91 n mol/min·mg
[1]; four weeks, control 38.7±6.0
  TG levels in livers: 14.8±3.7 mg/gram liver
[1]; four weeks, listed as fatostatin
  average weight of livers less than controls: ~32%
[1]; four weeks, listed as fatostatin A
  average weight of livers less than controls: about 32%
[1]; real time PCR
  reduction of PPAR γ mRNA level in liver: about 40%
[1]; real time PCR, normalized to actin
  reduction in the mRNA levels of ACC1, FAS and SCD1 in liver: about 80%
[1]; western blot
  protein level of FADS 1 or Δ5 Desaturase in liver: did not change
[1]; [3]
  reduction of ACL protein level in liver extracts: about 70%
  reduction of SCD1 protein level in liver extracts: about 50%
[2]
  secretion of PLAP phosphatase (PLAP-BP2 cleavage): decreased
